Where “and” joins values, the source holds several entries; their conditions need not be identical. Equal entries are not always repeated. Toxic doses and inconclusive results are not listed.

This assay has as its system AKR/Lw mice, AKR lymphoma ip, median survival T/C. Description: NCI In Vivo Anticancer Drug Screen. Data for tumor model Lymphoma AKR (Transplanted) (intraperitoneal) in AKR/Lw mice. The conditions noted are these: endpoint: median survival time, higher = longer survival. On the procedure:
The antitumor activity of compounds was measured in mice bearing transplantable tumors. Survival or tumor size were measured and the results are expressed as the measurement made in the treated group (T) divided by the measurement made in the vehicle treated control group (C). The tumor model used in this assay is Lymphoma AKR (Transplanted) (intraperitoneal) in AKR/Lw mice

[1] abbreviates: dose: 100.0 mg/kg/injection, schedule: Q01DX001 (ip), vehicle: saline.

For the compound `O=c1[nH]cc(F)c(=O)[nH]1`, the T/C is 152 % of control (dose: 1.25 mg/kg/injection, schedule: Q01DX005 (ip), vehicle: saline); 118 % of control (dose: 1.25 mg/kg/injection, schedule: Q03HX032 (ip), vehicle: saline); 114 % of control (dose: 2.5 mg/kg/injection, schedule: Q01DX005 (ip), vehicle: saline); 113 % of control (dose: 2.5 mg/kg/injection, schedule: Q01DX015 (ip), vehicle: saline); 123 % of control (dose: 3.1 mg/kg/injection, schedule: Q04DX003 (ip), vehicle: saline); 102 % of control (dose: 5.0 mg/kg/injection, schedule: Q01DX001 (ip), vehicle: saline). The T/C was 100 % of control and 106 % of control (dose: 5.0 mg/kg/injection, schedule: Q01DX009 (ip), vehicle: saline); 108 % of control (dose: 5.0 mg/kg/injection, schedule: Q01DX015 (ip), vehicle: saline); 97 % of control (dose: 5.0 mg/kg/injection, schedule: Q04DX003 (ip), vehicle: saline); 115 % of control (dose: 5.0 mg/kg/injection, schedule: Q04DX004 (ip), vehicle: saline); 97 % of control (dose: 5.0 mg/kg/injection, schedule: Q##DX003 (ip), vehicle: saline); 104 % of control (dose: 6.2 mg/kg/injection, schedule: Q01DX001 (ip), vehicle: saline). Besides, the T/C (dose: 6.2 mg/kg/injection, schedule: Q04DX003 (ip), vehicle: saline) was 113 % of control; the T/C (dose: 7.5 mg/kg/injection, schedule: Q01DX009 (ip), vehicle: saline) is 105 % of control; the T/C (dose: 9.0 mg/kg/injection, schedule: Q04DX003 (ip), vehicle: saline) is 112 % of control; the T/C (dose: 10.0 mg/kg/injection, schedule: Q01DX001 (ip), vehicle: saline) was 94 % of control; the T/C (dose: 10.0 mg/kg/injection, schedule: Q01DX009 (ip), vehicle: saline with Tween-80) was 118 % of control; the T/C (dose: 10.0 mg/kg/injection, schedule: Q01DX015 (ip), vehicle: saline) was 180 % of control. The T/C reads like this: (dose: 10.0 mg/kg/injection, schedule: Q04DX003 (ip), vehicle: saline) 168 % of control; (dose: 10.0 mg/kg/injection, schedule: Q##DX003 (ip), vehicle: saline) 168 % of control; (dose: 12.5 mg/kg/injection, schedule: Q01DX001 (ip), vehicle: saline) 100 % of control and 121 % of control; (dose: 15.0 mg/kg/injection, schedule: Q01DX009 (ip), vehicle: saline) 113 % of control; (dose: 15.0 mg/kg/injection, schedule: Q01DX015 (ip), vehicle: saline) 150 % of control and 177 % of control; (dose: 15.0 mg/kg/injection, schedule: Q04DX004 (ip), vehicle: saline) 113 % of control. The T/C is 98 % of control (dose: 18.0 mg/kg/injection, schedule: Q04DX003 (ip), vehicle: water); 105 % of control (dose: 20.0 mg/kg/injection, schedule: Q01DX001 (ip), vehicle: saline); 161 % of control (dose: 20.0 mg/kg/injection, schedule: Q01DX005 (ip), vehicle: saline); 122 % of control (dose: 20.0 mg/kg/injection, schedule: Q01DX009 (ip), vehicle: saline with Tween-80); 167 % of control (dose: 20.0 mg/kg/injection, schedule: Q01DX015 (ip), vehicle: saline); 95 % of control (dose: 20.0 mg/kg/injection, schedule: Q03HX024 (ip), vehicle: saline). Further, the T/C is 107 % of control (dose: 20.0 mg/kg/injection, schedule: Q04DX003 (ip), vehicle: saline); 107 % of control (dose: 20.0 mg/kg/injection, schedule: Q##DX003 (ip), vehicle: saline); 119 % of control (dose: 24.0 mg/kg/injection, schedule: Q04DX003 (ip), vehicle: water); 109 % of control and 116 % of control (dose: 25.0 mg/kg/injection, schedule: Q01DX001 (ip), vehicle: saline); 161 % of control (dose: 30.0 mg/kg/injection, schedule: Q01DX005 (ip), vehicle: saline); 177 % of control (dose: 30.0 mg/kg/injection, schedule: Q01DX009 (ip), vehicle: saline). Further, the T/C is 107 % of control (dose: 30.0 mg/kg/injection, schedule: Q04DX004 (ip), vehicle: saline); 163 % of control (dose: 36.0 mg/kg/injection, schedule: Q04DX003 (ip), vehicle: water); 86 % of control (dose: 40.0 mg/kg/injection, schedule: Q01DX009 (ip), vehicle: saline with Tween-80); 168 % of control (dose: 40.0 mg/kg/injection, schedule: Q04DX004 (ip), vehicle: saline); 97 % of control (dose: 40.0 mg/kg/injection, schedule: Q##DX003 (ip), vehicle: saline); 123 % of control and 291 % of control (dose: 45.0 mg/kg/injection, schedule: Q04DX004 (ip), vehicle: saline). The T/C is, setting by setting: (dose: 60.0 mg/kg/injection, schedule: Q04DX003 (ip), vehicle: saline) 89 % of control; (dose: 60.0 mg/kg/injection, schedule: Q04DX004 (ip), vehicle: saline) 157 % of control and 352 % of control; (dose: 60.0 mg/kg/injection, schedule: Q04DX008 (ip), vehicle: saline) 108 % of control; (dose: 75.0 mg/kg/injection, schedule: Q01DX001 (ip), vehicle: saline) 150 % of control and 166 % of control; (dose: 75.0 mg/kg/injection, schedule: Q04DX003 (ip), vehicle: saline) 260 % of control; (dose: 75.0 mg/kg/injection, schedule: Q04DX004 (ip), vehicle: saline) 88 % of control. Also, the T/C was 99 % of control (dose: 80.0 mg/kg/injection, schedule: Q04DX003 (ip), vehicle: saline); 105 % of control (dose: 150.0 mg/kg/injection, schedule: Q04DX003 (ip), vehicle: saline); 88 % of control (dose: 300.0 mg/kg/injection, schedule: Q04DX003 (ip), vehicle: saline).
`CC(C)c1c[nH]c(=O)[nH]c1=O`: the T/C is 97 % of control (dose: 25.0 mg/kg/injection, schedule: Q04DX003 (ip), vehicle: Klucel (hydroxypropylcellulose) (HPC)); 94 % of control (dose: 50.0 mg/kg/injection, schedule: Q04DX003 (ip), vehicle: Klucel (hydroxypropylcellulose) (HPC)); 94 % of control (dose: 100.0 mg/kg/injection, schedule: Q04DX003 (ip), vehicle: Klucel (hydroxypropylcellulose) (HPC)); 86 % of control (dose: 200.0 mg/kg/injection, schedule: Q01DX001 (ip), vehicle: Klucel (hydroxypropylcellulose) (HPC)); 92 % of control (dose: 400.0 mg/kg/injection, schedule: Q01DX001 (ip), vehicle: Klucel (hydroxypropylcellulose) (HPC)).
As for `CC(C)(CCCl)NCc1ccccc1`, the T/C under setting [1] was 102 % of control.
In the case of `OCC#CC#CCO`, the T/C reads like this: under setting [1], 100 % of control; (dose: 200.0 mg/kg/injection, schedule: Q01DX001 (ip), vehicle: saline) 92 % of control.

These data come from PubChem BioAssay AID190 (DTP/NCI, 2004).
